Columns and labels:
[1] = target: T1, KRAS WT (GDP-loaded, hexahistidine tagged, truncated 1-169) (Homo sapiens, UniProt P01116); assay: SOS-mediated nucleotide exchange assay, KRAS WT; assay type: biochemical; details: SOS(cat)-mediated Bodipy-GDP exchange
T1 construct: truncated (1-169) KRAS proteins; hexahistidine
Description: (§1) GDP-loaded, hexahistidine tagged, truncated (1-169) KRAS proteins (WT or G12D) were used (stored in protein dilution buffer [20 mM HEPES pH=7.5, 150 NaCl, 1 mM MgCl2]). 1 μL of the respective KRAS protein (1.88 μM stock, 0.125 μM final) was mixed with 10 μL of assay buffer (30 mM TRIS pH=7.5, 1.5 mM MgCl2, 0.135 μM Bodipy-GDP [20 mM TRIS pH=7.5, 1.0 mM MgCl2, 0.09 μM final]) and 1 μL of 15× compound stock in 30% DMSO (final DMSO conc. 2%). After 30 min incubation at room temperature, the exchange reaction was initiated by addition of 3 μL SOS(cat) (catalytic domain, 2.5 μM stock in protein dilution buffer, 0.5 μM final). The assay was carried out in black low-volume plates (Corning #4514) and fluorescence was monitored (485 nm excitation and 510 nm emission) for 45 minutes after initiation at 60-s intervals.
(§2) For data analysis, relative fluorescence values for each sample after subtracting the background values (before SOS addition) were plotted in graph pad. Rates were then calculated by fitting the data by non-linear regression (one phase association curve). Typically, 6 dilutions per compound (3-fold series, starting at 60 μM final) were measured. Calculated rates vs compound concentrations were fitted by non-linear regression (log(inhibitor) vs response-Variable slope (four parameters) fit) to determine IC50 values.
(§3) Compound numbers correspond to the numbers and structures provided in Tables 1, 2 and 3 and Examples 1-4.

[2] = target: T2, KRAS G12D (GDP-loaded, hexahistidine tagged, truncated 1-169) (Homo sapiens, UniProt P01116, G12D); assay: SOS-mediated nucleotide exchange assay, KRAS G12D; assay type: biochemical; details: SOS(cat)-mediated Bodipy-GDP exchange
T2 construct: truncated (1-169) KRAS proteins; hexahistidine
T2 sequence (P01116 1-169 isoform P01116-2 G12D): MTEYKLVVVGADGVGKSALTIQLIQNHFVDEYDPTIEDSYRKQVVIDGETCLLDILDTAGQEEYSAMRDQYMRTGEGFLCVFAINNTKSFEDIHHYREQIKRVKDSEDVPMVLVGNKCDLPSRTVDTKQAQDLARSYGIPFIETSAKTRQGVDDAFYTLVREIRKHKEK
Description: as §1, §2, §3

T1 sequence (P01116 1-169 isoform P01116-2): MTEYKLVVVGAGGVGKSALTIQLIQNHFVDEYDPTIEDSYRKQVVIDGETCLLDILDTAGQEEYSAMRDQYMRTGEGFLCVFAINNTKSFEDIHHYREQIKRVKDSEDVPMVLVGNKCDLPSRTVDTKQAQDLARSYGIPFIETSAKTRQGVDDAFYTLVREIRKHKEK

Row | Structure (SMILES) | IC50 [1] [µM] | IC50 [2] [µM]
1 | C[C@@H]1CN(c2nc(OCCCN(C)C)nc3c(F)c(-c4cc(O)cc5ccccc45)c(Cl)cc23)[C@@H](C)CN1 (atropisomer, axis not shown) [Compound 97] | > 15 | > 15
2 | CN(C)CCCOc1nc(N2CCOCC2)c2cc(Cl)c(-c3cc(O)cc4ccccc34)c(F)c2n1 (atropisomer, axis not shown) [Compound 151] | < 15 | > 15
3 | C[C@@H]1CN(c2nc(N3CC(N(C)C)C3)nc3c(F)c(-c4cc(O)cc5ccccc45)c(Cl)cc23)[C@@H](C)CN1 (atropisomer, axis not shown) [Compound 330] | > 15 | > 15
4 | CN(C)CCCOc1nc(N2CCNCC2)c2cc(Cl)c(-c3cc(O)cc4ccccc34)c(F)c2n1 (single isomer, unassigned) [Compound 22, 4-(6-chloro-2-(3-(dimethylamino)propoxy)-8-fluoro-4-(piperazin-1-yl)quinazolin-7-yl)naphthalen-2-ol] | > 15 | < 15
5 | CN(C)CCCOc1nc(N2CCNCC2)c2cc(Cl)c(-c3c(O)cccc3F)c(F)c2n1 [Compound 112] | > 15 | > 15
6 | CN(C)CC(O)COc1nc(N2CCNCC2)c2cc(Cl)c(-c3cc(O)cc4ccccc34)c(F)c2n1 (centres unmarked) [Compound 120] | > 15 | > 15
7 | CN(C)CCCOc1nc(N2CCN[C@@H](CO)C2)c2cc(Cl)c(-c3cc(O)cc4ccccc34)c(F)c2n1 [Compound 155] | > 15 | < 15
8 | CN(C)CCCOc1nc(N2CCN[C@@H](C(N)=O)C2)c2cc(Cl)c(-c3cc(O)cc4ccccc34)c(F)c2n1 [Compound 164] | > 15 | > 15
9 | CN(C)CCCOc1nc(N2CCC(C#N)CC2)c2cc(Cl)c(-c3cc(O)cc4ccccc34)c(F)c2n1 [Compound 165] | > 15 | > 15
10 | CN(C)CCCOc1nc(N2CCN[C@@H](C#N)C2)c2cc(Cl)c(-c3cc(O)cc4ccccc34)c(F)c2n1 [Compound 166] | > 15 | > 15
11 | CN(CCCCCN=[N+]=[N-])CCCOc1nc(N2CCOCC2)c2cc(Cl)c(-c3cc(O)cc4ccccc34)c(F)c2n1 [Compound 167] | – | > 15
12 | CN(C)CCCOc1nc(N2CCNC(CC(N)=O)C2)c2cc(Cl)c(-c3cc(O)cc4ccccc34)c(F)c2n1 (centres unmarked) [Compound 169] | – | < 15
13 | CN(C)CCCOc1nc(N2CCNC(CC#N)C2)c2cc(Cl)c(-c3cc(O)cc4ccccc34)c(F)c2n1 (centres unmarked) [Compound 170] | < 15 | > 15
14 | CC(=O)NCCCCCN(C)CCCOc1nc(N2CCOCC2)c2cc(Cl)c(-c3cc(O)cc4ccccc34)c(F)c2n1 [Compound 171] | > 15 | > 15
15 | CC(=O)NCCCCCN(C)CCCOc1nc(N2CCNCC2)c2cc(Cl)c(-c3cc(O)cc4ccccc34)c(F)c2n1 [Compound 172] | > 15 | < 15
16 | CN(CCOc1nc(N2CCOCC2)c2cc(Cl)c(-c3cc(O)cc4ccccc34)c(F)c2n1)C(=O)CCl [Compound 175] | > 15 | > 15
17 | O=S(=O)(F)CCOc1nc(N2CCOCC2)c2cc(Cl)c(-c3cc(O)cc4ccccc34)c(F)c2n1 [Compound 176] | > 15 | > 15
18 | CN(C)C1CN(c2nc(N3CCNCC3)c3cc(Cl)c(-c4cc(O)cc5ccccc45)c(F)c3n2)C1 [Compound 334, 4-(6-Chloro-2-(3-(dimethylamino)azetidin-1-yl)-8-fluoro-4-(piperazin-1-yl)quinazolin-7-yl)naphthalen-2-ol] | – | < 15
19 | CN(C(=O)CN)C1CN(c2nc(N3CCNCC3)c3cc(Cl)c(-c4cc(O)cc5ccccc45)c(F)c3n2)C1 [Compound 344] | > 15 | < 15
20 | CN(C(=O)CO)C1CN(c2nc(N3CCNCC3)c3cc(Cl)c(-c4cc(O)cc5ccccc45)c(F)c3n2)C1 [Compound 346] | > 15 | > 15
21 | CN(C(=O)CCl)C1CN(c2nc(N3CCOCC3)c3cc(Cl)c(-c4cc(O)cc5ccccc45)c(F)c3n2)C1 [Compound 350] | > 15 | > 15
22 | CN(C(=O)CCl)C1CN(c2nc(N3CCNCC3)c3cc(Cl)c(-c4cc(O)cc5ccccc45)c(F)c3n2)C1 [Compound 351] | > 15 | > 15

Second part, the molecule after the results:

Row | IC50 [1] [µM] | IC50 [2] [µM] | Structure (SMILES)
23 | – | < 15 | CN(C)CCCOc1nc(N2CCNCC2)c2cc(C(F)(F)F)c(-c3cc(O)cc4ccccc34)c(F)c2n1 (atropisomer, axis not shown) [Compound 156]
24 | < 15 | > 15 | CC(=O)N1CCN(c2nc(OCCCN(C)C)nc3c(F)c(-c4cc(O)cc5ccccc45)c(C(F)(F)F)cc23)CC1 (atropisomer, axis not shown) [Compound 158]
25 | < 15 | > 15 | CN(C)CCCOc1nc(N2CCOCC2)c2cc(C(F)(F)F)c(-c3cc(O)cc4ccccc34)c(F)c2n1 (atropisomer, axis not shown) [Compound 162]
26 | > 15 | – | CN(C)C1CN(c2nc(N3CCNCC3)c3cc(Cl)c(-c4cc(O)cc5ccccc45)c(F)c3n2)C1 (atropisomer, axis not shown) [Compound 339]
27 | < 15 | > 15 | CC(=O)N1CCN(c2nc(OCCCN(C)C)nc3c(F)c(-c4cc(O)cc5ccccc45)c(Cl)cc23)CC1 (single isomer, unassigned) [Compound 18, 1-(4-(6-chloro-2-(3-(dimethylamino)propoxy)-8-fluoro-7-(3-hydroxynaphthalen-1-yl)quinazolin-4-yl)piperazin-1-yl)ethanone]
28 | > 15 | > 15 | Cc1ccc2[nH]ncc2c1-c1c(Cl)cc2c(N3CCNCC3)nc(OCCCN(C)C)nc2c1F [Compound 108]
29 | > 15 | – | CN(C)CCCOc1nc(N2CCNCC2)c2cc(C(F)(F)F)c(-c3cc(O)cc4ccccc34)c(F)c2n1 [Compound 147]
30 | – | > 15 | CN(CCCCCN=[N+]=[N-])CCCOc1nc(N2CCNCC2)c2cc(Cl)c(-c3cc(O)cc4ccccc34)c(F)c2n1 [Compound 168]
31 | > 15 | > 15 | Cc1cc(N)c2[nH]ncc2c1-c1c(Cl)cc2c(N3CCNCC3)nc(OCCCN(C)C)nc2c1F [Compound 173]
32 | – | > 15 | Cc1cc(N)c2[nH]ncc2c1-c1c(Cl)cc2c(N3CCOCC3)nc(OCCCN(C)C)nc2c1F [Compound 174]

— patent US10822312B2, “Substituted quinazoline compounds and methods of use” (ARAXES PHARMA LLC, priority 2016, dated 2020)
